Values quoted from earlier work, collected in patent US12357667B2, “Nutraceutical formulations to prevent, treat, and inhibit excess cytokines, SARS-CoV-2 spike proteins, and mRNA vaccine spike proteins” (priority 2021, dated 2025).
Structures can show the parent of a compound that is named as a salt.

What was measured:
SARS-CoV-2 [1] = system: SARS-CoV-2
SARS-CoV-2 [2] = conditions: structure-based molecular docking
SARS-CoV-2 [3] = conditions: lung epithelial cells
[4] = 6 mg/day for 4 weeks, active young men
[5] = hyperlipidemic rats
SARS-CoV-2 [6] = conditions: patients previously taking CBD relative to matched pairs or the general population
[7] = system: mouse hepatitis virus (MHV); conditions: A549-MHVR cells, non-toxic conditions; read-out: EC50, suppression of MHV replication
SARS-CoV-2 [8] = system: SARS-CoV-2; remark: listed apart in the source
CB1 = CB1 (Homo sapiens, UniProt P21554)
[9] = target: cannabinoid G-protein coupled receptor CB2 (Homo sapiens, UniProt P34972)
[10] = system: human influenza viruses (H5N1, Vietnam/VN1203 strain)
RBD and ACE2 = RBD and ACE2 (Severe acute respiratory syndrome coronavirus 2, UniProt P0DTC2)
pseudotyped SARS-CoV-2 = conditions: VeroE6/TMPRSS2 cells
influenza = conditions: 6-month preventive administration
SARS-CoV-2 viral S-spike = SARS-CoV-2 viral S-spike (Severe acute respiratory syndrome coronavirus 2, UniProt P0DTC2); conditions: supercomputer modeling; out of 20 top performers
[11] = target: T1, papain-like protease (PLpro) (Severe acute respiratory syndrome coronavirus 2, UniProt P0DTD1)
T1 construct: papain-like protease (PLpro)

[12] = not given; remark: listed apart in the source
[13] = target: T2, 3-chymotrypsin-like protease (3CLpro) (Severe acute respiratory syndrome coronavirus 2, UniProt P0DTD1)
T2 construct: 3-chymotrypsin-like protease (3CLpro)

[14] = system: multiple strains of SARS-CoV-2, including Delta and Omicron
[15] = system: respiratory syncytial virus; conditions: respiratory syncytial virus-infected mice
blood coagulation = conditions: in vitro coagulation assays
[16] = system: pseudovirus expressing the SARS-CoV-2 spike protein
Furin = Furin (Homo sapiens, UniProt P09958)
main proteases (6Y2E) = target: T3, main proteases (6Y2E) (Severe acute respiratory syndrome coronavirus 2, UniProt P0DTD1); conditions: 6Y2E active sites
T3 construct: main proteases (6LU7 and 6Y2E)

[17] = system: glutamate-cysteine ligase; design: dose or concentration left out as unconfirmed; conditions: zinc, ARPE-19 cells
SARS-CoV-2 [18] = system: SARS-CoV-2; remark: listed apart in the source

Chain of cannabinoid G-protein coupled receptor CB2 (P34972 whole entry): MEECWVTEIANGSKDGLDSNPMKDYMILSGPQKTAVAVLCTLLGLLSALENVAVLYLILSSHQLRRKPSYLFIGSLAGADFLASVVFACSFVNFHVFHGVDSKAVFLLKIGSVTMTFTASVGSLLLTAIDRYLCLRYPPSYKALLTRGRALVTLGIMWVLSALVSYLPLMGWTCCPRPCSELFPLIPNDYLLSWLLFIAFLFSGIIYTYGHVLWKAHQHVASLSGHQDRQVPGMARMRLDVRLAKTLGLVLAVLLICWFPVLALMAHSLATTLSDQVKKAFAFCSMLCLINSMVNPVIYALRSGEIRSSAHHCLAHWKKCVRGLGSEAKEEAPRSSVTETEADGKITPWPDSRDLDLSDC
Chain of Furin (P09958 108-794, species assumed): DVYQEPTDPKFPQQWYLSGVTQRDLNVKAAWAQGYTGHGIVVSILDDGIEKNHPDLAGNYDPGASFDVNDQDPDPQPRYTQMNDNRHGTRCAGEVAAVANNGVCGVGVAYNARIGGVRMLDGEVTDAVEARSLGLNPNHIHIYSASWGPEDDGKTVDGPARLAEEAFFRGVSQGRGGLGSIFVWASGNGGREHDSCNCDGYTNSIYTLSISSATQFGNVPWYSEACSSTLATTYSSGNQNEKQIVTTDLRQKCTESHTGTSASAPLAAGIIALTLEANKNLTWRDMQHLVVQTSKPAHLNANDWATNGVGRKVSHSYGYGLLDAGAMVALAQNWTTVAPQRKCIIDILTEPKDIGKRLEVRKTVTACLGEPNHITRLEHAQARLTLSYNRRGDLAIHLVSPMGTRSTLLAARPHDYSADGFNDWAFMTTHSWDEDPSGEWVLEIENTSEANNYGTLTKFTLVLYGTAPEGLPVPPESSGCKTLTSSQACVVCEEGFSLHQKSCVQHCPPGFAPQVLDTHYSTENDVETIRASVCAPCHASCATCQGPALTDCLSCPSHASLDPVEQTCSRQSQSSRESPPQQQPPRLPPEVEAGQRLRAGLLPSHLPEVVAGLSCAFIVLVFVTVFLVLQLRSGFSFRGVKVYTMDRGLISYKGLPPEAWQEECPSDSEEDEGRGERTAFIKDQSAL
Chain of CB1 (P21554 whole entry, species assumed): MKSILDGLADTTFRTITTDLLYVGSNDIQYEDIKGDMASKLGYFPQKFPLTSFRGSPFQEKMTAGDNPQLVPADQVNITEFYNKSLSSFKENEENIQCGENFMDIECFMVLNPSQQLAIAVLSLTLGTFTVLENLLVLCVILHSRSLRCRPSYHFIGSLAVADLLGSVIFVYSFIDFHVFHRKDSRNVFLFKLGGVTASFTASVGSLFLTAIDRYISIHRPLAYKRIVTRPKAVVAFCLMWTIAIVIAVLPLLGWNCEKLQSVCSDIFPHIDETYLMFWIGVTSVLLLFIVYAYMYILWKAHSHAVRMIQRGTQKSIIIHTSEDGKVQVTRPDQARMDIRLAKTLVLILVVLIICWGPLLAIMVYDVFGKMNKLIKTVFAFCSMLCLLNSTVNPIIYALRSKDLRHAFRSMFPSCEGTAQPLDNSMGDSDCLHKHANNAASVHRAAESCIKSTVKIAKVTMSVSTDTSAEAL

**Q.** Which “replication of SARS-CoV-2 in vitro” value (SARS-CoV-2 [1]) does the source give for `C=C(CC(=O)OCCCCCCCC)C(=O)O` [4-octyl-itaconate] here?
**A.** inhibited replication

**Q.** With `CN1c2c(nc(N)[nH]c2=O)NCC1CNc1ccc(C(=O)N[C@@H](CCC(=O)O)C(=O)O)cc1` (stereo partly shown) [5-methyl tetrahydrofolic acid] as the molecule, how does the “binding affinities against the SARS-CoV-2” value (“binding affinities” below) (SARS-CoV-2 [2]) read?
**A.** strong and stable binding affinities

**Q.** For `C=C(C)[C@@H]1CCC(CO)=C[C@H]1c1c(O)cc(CCCCC)cc1O` [7-0H-CBD, 7-OH-CBD], which “block of SARS-CoV-2 replication” value (SARS-CoV-2 [3]) is on record?
**A.** potently block

**Q.** For `CC1=C(/C=C/C(C)=C/C=C/C(C)=C/C=C/C=C(C)/C=C/C=C(C)/C=C/C2=C(C)C(=O)[C@@H](O)CC2(C)C)C(C)(C)C[C@H](O)C1=O` [Astaxanthin], which “Glutathione higher compared with placebo” value [4] is on record?
**A.** ~7%

**Q.** And the “oxidative stress markers or substrate utilization during exercise” value [4]?
**A.** did not affect

**Q.** And the “Glutathione, whole blood” value ([4]; fasting blood sample)?
**A.** 1,233±133 μM

**Q.** What about the “coagulation, fibrinolytic activity and platelet aggregation” value [5] of the same molecule?
**A.** inhibit coagulation, increase fibrinolytic activity and reduce platelet aggregation

**Q.** Which results are given for `C=C(C)[C@@H]1CCC(C)=C[C@H]1c1c(O)cc(CCCCC)cc1O` [CBD, Cannabidiol]?
**A.** IL-1β, IL-6, TNF and IL-18 (Caco-2 cells; ELISA, CBD 10-9-10-7 M): parallel inhibition; transepithelial electrical resistance (TEER) (Caco-2 cells; following CBD treatment): restoration; proinflammatory markers triggered by Spike Protein (TLR-4, ACE-2, RhoA-GTPase, NLRP3, Caspase-1) (Caco-2 cells; immunoblot, CBD 10-9-10-7 M): reduce all the analyzed proinflammatory markers; SARS-CoV-2 infection incidence (SARS-CoV-2 [6]): significantly lower; EC50 [7]: ~5 µM; inhibition of SARS-CoV-2 replication (SARS-CoV-2 [8]; Vero E6 monkey kidney epithelial cells): inhibited SARS-CoV-2 replication; toxicity (SARS-CoV-2 [8]; at the effective doses): No toxicity; block of SARS-CoV-2 replication (SARS-CoV-2 [3]): potently block

**Q.** For `C=C(C)[C@@H]1CCC(C)=C[C@H]1c1c(O)cc(CCC)cc1O` [CBDV, cannabidivarin, reference compound], which “levels of interleukin-6 (IL-6) and lactate dehydrogenase (LDH)” value (astrocytes) is on record?
**A.** attenuated levels

**Q.** With `CCCCCc1cc(O)c(C/C=C(\C)CCC=C(C)C)c(O)c1` [CBG, Cannabigerol] as the molecule, how does the “levels of DNA damage proteins” value (astrocytes) read?
**A.** decreased levels

**Q.** And the “levels of interleukin-6 (IL-6) and lactate dehydrogenase (LDH)” value (astrocytes)?
**A.** attenuated levels

**Q.** What does the source list for `CCCCCc1cc(O)c2c(c1)OC(C)(C)c1ccc(C)cc1-2` [Cannabinol]?
**A.** affinity for CB1 (CB1): minimal affinity; binding to CB2 [9]: preferentially binds

**Q.** For `CC(=O)N[C@@H](CS)C(=O)O` [N-acetylcysteine, reference compound], which “inhibition of H5N1 replication” value [10] is on record?
**A.** dose dependent manner

**Q.** And the “production of pro-inflammatory cytokines (IL-8, CXCL10, CCL5 and IL-6)” value [10]?
**A.** reduced the production

**Q.** What about the “in vitro binding of RBD and ACE2” value (RBD and ACE2) of the same molecule?
**A.** inhibited

**Q.** What about the pseudotyped viral infection (pseudotyped SARS-CoV-2) of the same molecule?
**A.** inhibited

**Q.** And the “incidence of clinically apparent influenza and influenza-like episodes” value (influenza)?
**A.** significantly reduced

**Q.** What about the spike-mediated cell-cell fusion (SARS-CoV-2 spike) of the same molecule?
**A.** inhibited

**Q.** Which “oral absorption / systemic bioavailability” value does the source give for `O=c1c(O)c(-c2ccc(O)c(O)c2)oc2cc(O)cc(O)c12` [Quercetin] here?
**A.** reduced oral absorption

**Q.** What about the “rank for inhibition of SARS-CoV-2 viral S-spike binding to cells” value (SARS-CoV-2 viral S-spike) of the same molecule?
**A.** fifth

**Q.** What about the docking binding energy [11] of the same molecule?
**A.** -4.62 kcal/mol

**Q.** And the solubility [12]?
**A.** low solubility

**Q.** And the docking binding energy [13]?
**A.** -6.25 kcal/mol

**Q.** With `C[S+]([O-])CCCCN=C=S` (stereo not shown) [SFN, Sulforaphane] as the molecule, how does the “toxicity in cell culture” value [14] read?
**A.** limited toxicity

**Q.** What about the antiviral activity ([14]; multiple strains of SARS-CoV-2, including Delta and Omicron) of the same molecule?
**A.** potent antiviral activity

**Q.** What about the “lung viral replication and virus-induced inflammation” value [15] of the same molecule?
**A.** significantly limited

**Q.** What about the antiviral activity (HCoV-OC43) of the same molecule?
**A.** potent antiviral activity

**Q.** For `CC1=CC(=O)C(C(C)C)=CC1=O` [Thymoquinone], which anticoagulant activity (blood coagulation) is on record?
**A.** possesses anticoagulant activity

**Q.** For `C=C(C)[C@@H]1CCC(C)=C[C@H]1c1c(O)cc(CCCCC)c(C(=O)O)c1O` [cannabidiolic acid], which “infection of human epithelial cells by pseudovirus” value [16] is on record?
**A.** prevented infection

**Q.** And the “entry of live SARS-CoV-2 into cells” value (live SARS-CoV-2)?
**A.** prevented entry

**Q.** With `CCCCCc1cc(O)c(C/C=C(\C)CCC=C(C)C)c(O)c1C(=O)O` [cannabigerolic acid] as the molecule, how does the “infection of human epithelial cells by pseudovirus” value [16] read?
**A.** prevented infection

**Q.** What about the “entry of live SARS-CoV-2 into cells” value (live SARS-CoV-2) of the same molecule?
**A.** prevented entry

**Q.** For `COc1cc(/C=C/C(=O)CC(=O)/C=C/c2ccc(O)c(OC)c2)ccc1O` [curcumin, diferuloylmethane], which “oral absorption / systemic bioavailability” value is on record?
**A.** minimal absorption

**Q.** With `COC(=O)/C=C/C(=O)OC` [dimethyl fumarate] as the molecule, how does the “replication of SARS-CoV-2 in vitro” value (SARS-CoV-2 [1]) read?
**A.** inhibited replication

**Q.** Which furin inhibition (Furin) does the source give for `Nc1nc2ncc(CNc3ccc(C(=O)N[C@@H](CCC(=O)O)C(=O)O)cc3)nc2c(=O)[nH]1` [folic acid] here?
**A.** inhibit furin

**Q.** And the “binding affinities” value (SARS-CoV-2 [2])?
**A.** strong and stable binding affinities

**Q.** Which results are given for `N[C@@H](CCC(=O)N[C@@H](CS)C(=O)NCC(=O)O)C(=O)O` [glutathione, γ-glutamyl cysteinyl glycine]?
**A.** in vitro binding of RBD and ACE2 (RBD and ACE2): inhibited; pseudotyped viral infection (pseudotyped SARS-CoV-2): inhibited; oral absorption / systemic bioavailability: poor; spike-mediated cell-cell fusion (SARS-CoV-2 spike): inhibited

**Q.** With `CC1(C)CC[C@]2(C(=O)O)CC[C@]3(C)C(=CC[C@@H]4[C@@]5(C)CC[C@H](O)[C@@](C)(CO)[C@@H]5CC[C@]43C)[C@@H]2C1` [hederagenin] as the molecule, how does the “docking binding score with 6Y2E” value (main proteases (6Y2E)) read?
**A.** less than saquinavir

**Q.** Which ACE2 levels (ACE2) does the source give for `Cc1c(-c2cnccn2)ssc1=S` [oltipraz] here?
**A.** reduces ACE2 levels

**Q.** Which “binding affinities” value (SARS-CoV-2 [2]) does the source give for `Nc1nc2c(c(=O)[nH]1)NC(CNc1ccc(C(=O)N[C@@H](CCC(=O)O)C(=O)O)cc1)CN2` (stereo partly shown) [tetrahydrofolic acid] here?
**A.** strong and stable binding affinities

**Q.** Which “mRNA levels of glutamate-cysteine ligase” value [17] does the source give for `[Zn]` [zinc] here?
**A.** upregulates

**Q.** What does the source list for bromelain?
**A.** toxicity (PGE-2): very low toxicity; effect on PGE-2 inhibition (PGE-2; compared with prednisone and aspirin): exceeds that of prednisone and aspirin; infection of VeroE6 cells by SARS-CoV-2 (SARS-CoV-2 [18]): inhibits infection
